From patent US6967196B1, “Sulfonamide compounds and uses thereof” (Bristol-Myers Squibb Company, priority 1999, dated 2005)
Where a name gives a salt, the structure may show the parent alone.

tested on: amyloid β production in transfected H4 (human neuroglioma) cells stably expressing APP constructs; experiment: In vitro cell-based assay of inhibitors of amyloid β production (ELISA); details: Homo sapiens, 16 h, transfected H4 cells expressing APP, approximately 16 hours incubation, amyloid β in medium by ELISA; read-out: ACTIVITY (IC50, inhibition of amyloid β production)
Method in brief: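 Plate wt/variant APP cells; ≥6 h later swap to medium + compound (10-100 μM screen); incubate ~16 h; sample medium; Aβ ELISA with C-terminal capture / N-terminal detection Abs; quantify vs Aβ standard curve.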

IC50 [nM] | Compound
> 500 | CC1CCCCN1CCCNC(=O)[C@@H](C)N(c1cc(Cl)ccc1F)S(=O)(=O)c1ccc(Cl)cc1 (stereo partly shown) [Example 1340]
> 500 | C[C@H](C(=O)NC1CCC(C(C)(C)C)CC1)N(c1cc(Cl)ccc1F)S(=O)(=O)c1ccc(Cl)cc1 (stereo partly shown) [Example 1316]
100 to 500 | C[C@H](C(=O)NCc1cccnc1)N(c1cc(Cl)ccc1F)S(=O)(=O)c1ccc(Cl)cc1 [Example 1332]

same assay, conditions: Homo sapiens, 16 h, transfected H4 cells stably expressing APP constructs; approximately 16 hours incubation; amyloid β in medium by ELISA; read-out: ACTIVITY (IC50, inhibition of amyloid β production)

IC50 [nM] | Compound
25 to 50 | C[C@H](CCN1CCSC1C(=O)O)N(c1cc(Cl)ccc1Cl)S(=O)(=O)c1ccc(Cl)cc1 (stereo partly drawn) [Example 1111, 4-chloro-N-(2,5-dichlorophenyl)-N-[3-(2-carboxy-3-thiazolidinyl)-1(R)-methylpropyl]benzenesulfonamide]
25 to 50 | CC(CCCN1CCOCC1)N(c1cc(Cl)ccc1F)S(=O)(=O)c1ccc(Cl)cc1 (stereo not shown) [Example 1114, 4-chloro-N-(5-chloro-2-fluorophenyl)-N-[4-(4-morpholinyl)-1-methylbutyl]benzenesulfonamide]

same assay, conditions: Homo sapiens, 16 h, transfected H4 cells stably expressing APP; approx. 16 h incubation; amyloid β in medium by ELISA; read-out: ACTIVITY (IC50, inhibition of amyloid β production)

IC50 [nM] | Compound
100 to 500 | CCN(CCOc1ccccc1C(C)N(c1cc(F)ccc1F)S(=O)(=O)c1ccc(Cl)cc1)C(=O)NC(C)C (stereo not shown) [Example 725, 4-chloro-N-(2,5-difluorophenyl)-N-{1-[2-(2-{ethyl[(isopropylamino)carbonyl]amino}ethoxy)phenyl]ethyl}benzenesulfonamide]
100 to 500 | O=S(=O)(c1ccc(Cl)cc1)N(Cc1ccccc1OCCCN1CCCC1)c1ccccc1 [Example 718, 4-chloro-N-phenyl-N-{2-[3-(1-pyrrolidinyl)propoxy]benzyl}benzenesulfonamide hydrochloride]
100 to 500 | O=C(c1ccc(F)c(F)c1F)N1CCCCC1CCOc1ccccc1CN(c1cc(F)ccc1F)S(=O)(=O)c1ccc(Cl)cc1 (stereo not shown) [Example 797, 4-chloro-N-(2,5-difluorophenyl)-N-(2-{2-[1-(2,3,4-trifluorobenzoyl)-2-piperidinyl]ethoxy}benzyl)benzenesulfonamide]

same assay, conditions: Homo sapiens, 16 h, transfected H4 cells stably expressing APP; approximately 16 hours incubation; amyloid β in medium by ELISA; read-out: ACTIVITY (IC50, inhibition of amyloid β production)

IC50 [nM] | Compound
> 500 | O=S(=O)(c1ccc(Cl)cc1)N(Cc1ccccc1C#CCn1ccnc1)c1cc(F)ccc1F [Example 1051, 4-chloro-N-(2,5-difluorophenyl)-N-{2-[3-(1H-imidazol-1-yl)-1-propynyl]benzyl}benzenesulfonamide hydrochloride]
> 500 | C[C@H](c1ccccc1OCCCn1ccnc1)N(c1cccc(F)c1)S(=O)(=O)c1ccc(Cl)cc1 [Example 895, 4-chloro-N-(3-fluorophenyl)-N-((1R)-1-{2-[3-(1H-imidazol-1-yl)propoxy]phenyl}ethyl)benzenesulfonamide hydrochloride]
> 500 | O=S(=O)(c1ccc(Cl)cc1)N(Cc1ccccc1OCCCN1CCCCC1)c1ccc(Br)cc1 [Example 988, N-(4-bromophenyl)-4-chloro-N-{2-[3-(1-piperidinyl)propoxy]benzyl}benzenesulfonamide hydrochloride]
> 500 | O=S(=O)(c1ccc(Cl)cc1)N(Cc1ccccc1O)c1cc(F)ccc1F [Example 1054, 4-chloro-N-(2,5-difluorophenyl)-N-(2-hydroxybenzyl)benzenesulfonamide]
> 500 | CS(=O)(=O)c1cccc(N(Cc2ccccc2OCCCN2CCCCC2)S(=O)(=O)c2ccc(Cl)cc2)c1 [Example 1036, 4-chloro-N-[3-(methylsulfonyl)phenyl]-N-{2-[3-(1-piperidinyl)propoxy]benzyl}benzenesulfonamide hydrochloride]
100 to 500 | O=S(=O)(c1ccc(Cl)cc1)N(Cc1ccccc1OCCCN1CCCCC1)C1CCCCC1 [Example 852, 4-chloro-N-cyclohexyl-N-{2-[3-(1-piperidinyl)propoxy]benzyl}benzenesulfonamide hydrochloride]

Compound | IC50 [nM]
O=S(=O)(c1ccccc1)N(Cc1ccccc1OCCCN1CCC(O)C1)c1ccccc1 (stereo not shown) [Example 809, N-{2-[3-(3-hydroxy-1-pyrrolidinyl)propoxy]benzyl}-N-phenylbenzenesulfonamide hydrochloride] | 100 to 500

same assay, conditions: Table B; transfected H4 cells stably expressing APP; approximately 16 hours incubation; amyloid β in medium by ELISA; read-out: ACTIVITY (inhibitory concentration IC50, inhibition of amyloid β production)

IC50 [nM] | Compound
≤ 25 | CC(C)(C)[Si](C)(C)OCCCCCO [Example 1, (S)-5-[[dimethyl(1,1-dimethylethyl)silyl]oxy]-1-pentanol]

same assay, conditions: read-out: ACTIVITY (inhibitory concentration IC50, inhibition of amyloid β production)

Compound | IC50 [nM]
Cc1ccc(OCCCN2CCCCC2)c(CN(c2cc(F)ccc2F)S(=O)(=O)c2ccc(Cl)cc2)c1 [Example 232, 4-Chloro-N-(2,5-difluorophenyl)-N-{5-methyl-2-[3-(1-piperidinyl)propoxy]benzyl}benzenesulfonamide hydrochloride] | 25 to 50

same assay, conditions: transfected H4 cells stably expressing APP constructs; approximately 16 hours incubation; amyloid β in medium by ELISA; read-out: ACTIVITY (IC50, inhibition of amyloid β production)

Compound | IC50 [nM]
C[C@H](CCCN1CCCC(S(C)(=O)=O)C1)N(c1cc(Cl)ccc1Cl)S(=O)(=O)c1ccc(Cl)cc1 (stereo partly drawn) [Example 1109, 4-chloro-N-(2,5-dichlorophenyl)-N-[4-[(3-methylsulfonyl)-1-piperidinyl]-1(R)-methylbutyl]benzenesulfonamide] | ≤ 25
CCS(=O)(=O)CCC[C@@H](C)N(c1cc(Cl)ccc1F)S(=O)(=O)c1ccc(Cl)cc1 [Example 1163, 4-chloro-N-[5-chloro-2-fluorophenyl]-N-[1(R)-methyl-(4-ethylsulfonyl)butyl]benzenesulfonamide] | ≤ 25
C[C@H](CCCN1CCC(S(C)(=O)=O)CC1)N(c1cc(Cl)ccc1Cl)S(=O)(=O)c1ccc(Cl)cc1 [Example 1126, 4-chloro-N-(2,5-dichlorophenyl)-N-[4-[(4-methylsulfonyl)-1-piperidinyl]-1(R)-methylbutyl]benzenesulfonamide] | 50 to 100

same assay, conditions: transfected H4 cells stably expressing APP; approx. 16 h incubation; amyloid β in medium by ELISA; read-out: ACTIVITY (IC50, inhibition of amyloid β production)

IC50 [nM] | Compound
100 to 500 | CCCC(C)N(Cc1ccccc1OCCCN1CCCCC1)S(=O)(=O)c1ccc(Cl)cc1 (stereo not shown) [Example 782, 4-chloro-N-(1-methylbutyl)-N-{2-[3-(1-piperidinyl)propoxy]benzyl}benzenesulfonamide hydrochloride]
100 to 500 | Cc1cccc(C(=O)N(C)CCCOc2ccccc2C(C)N(c2cc(F)ccc2F)S(=O)(=O)c2ccc(Cl)cc2)c1 (stereo not shown) [Example 766]

The next lines start with the compound.

Compound | IC50 [nM]
O=C(c1ccccc1F)N1CCCCC1CCOc1ccccc1CN(c1cc(F)ccc1F)S(=O)(=O)c1ccc(Cl)cc1 (stereo not shown) [Example 787] | 100 to 500
N-{4-[2-(1-{[(4-chlorophenyl)sulfonyl]-2,5-difluoroanilino}ethyl)phenoxy]butyl}-N,2,4-trimethylpentanamide [Example 700] | 100 to 500
3-chloro-N-{3-[2-(1-{[(4-chlorophenyl)sulfonyl]-2,5-difluoroanilino}ethyl)phenoxy]propyl}-N-methylbenzenesulfonamide [Example 684] | 100 to 500
CCCCC(=O)N(C)CCCOc1ccccc1CN(c1cc(F)ccc1F)S(=O)(=O)c1ccc(Cl)cc1 [Example 717, N-{3-[2-({[(4-chlorophenyl)sulfonyl]-2,5-difluoroanilino}methyl)phenoxy]propyl}-N-methylpentamide] | 100 to 500
2-((1R)-1-{[(4-chlorophenyl)sulfonyl]-2,5-difluoroanilino}ethyl)benzyl 4-fluorobenzylcarbamate [Example 748] | 100 to 500
4-chloro-N-{3-[2-(1-{[(4-chlorophenyl)sulfonyl]-2,5-difluoroanilino}ethyl)phenoxy]propyl}-N-methylbenzamide [Example 722] | 100 to 500
S-ethyl 4-[2-(1-{[(4-chlorophenyl)sulfonyl]-2,5-difluoroanilino}ethyl)phenoxy]butyl(ethyl)thiocarbamate [Example 790] | 100 to 500
N-{3-[2-({[(4-chlorophenyl)sulfonyl]-2,5-difluoroanilino}methyl)phenoxy]propyl}-N,3-dimethylbenzamide [Example 696] | 100 to 500
N-{2-[2-(1-{[(4-chlorophenyl)sulfonyl]-2,5-difluoroanilino}ethyl)phenoxy]ethyl}-N-ethylcyclopentanecarboxamide [Example 721] | 100 to 500
N-{2-[2-(1-{[(4-chlorophenyl)sulfonyl]-2,5-difluoroanilino}ethyl)phenoxy]ethyl}-N-ethylbutanamide [Example 646] | 100 to 500

same assay, conditions: transfected H4 cells stably expressing APP; approximately 16 hours incubation; amyloid β in medium by ELISA; read-out: ACTIVITY (IC50, inhibition of amyloid β production)

IC50 [nM] | Compound
100 to 500 | N-{3-[2-({[(4-chlorophenyl)sulfonyl]-2,5-difluoroanilino}methyl)phenoxy]propyl}-N-methyl-1-naphthamide [Example 821]
> 500 | C[C@H](c1ccc(F)cc1CCCC(=O)O)N(c1cc(F)ccc1F)S(=O)(=O)c1ccc(Cl)cc1 [Example 1080, 4-[2-((1R)-1-{[(4-chlorophenyl)sulfonyl]-2,5-difluoroanilino}ethyl)-5-fluorophenyl]butanoic acid]
100 to 500 | N-{3-[2-(1-{[(4-chlorophenyl)sulfonyl]-2,5-difluoroanilino}ethyl)phenoxy]propyl}-3,5-difluorobenzamide [Example 815]
> 500 | 3,4-dichloro-N-{3-[2-({[(4-chlorophenyl)sulfonyl]-2,5-difluoroanilino}methyl)phenoxy]propyl}-N-methylbenzamide [Example 932]
> 500 | N-{3-[2-({[(4-chlorophenyl)sulfonyl]-2,5-difluoroanilino}methyl)phenoxy]propyl}-N-methyl-2-phenylcyclopropanecarboxamide [Example 917]
